This assay has as its system cucumber powdery mildew fungus (Sphaerotheca fuliginea, a QoI-resistant strain, cytochrome b position 143 glycine to alanine). The assay is classed as in vivo. Conditions: 500 ppm spray on cucumber (SAGAMI HANJIRO); investigated 8 days after inoculation.

With `Cn1nnn(-c2ccccc2OCc2ccccc2)c1=O` [1-[2-(phenylmethoxy)phenyl]-4-methyl-1,4-dihydrotetrazol-5-one], the “area of lesion on the treated plant relative to that on an untreated plant” value is on record as not below 70%.

The values are drawn from patent US10091998B2, “Tetrazolinone compound and use thereof” (SUMITOMO CHEMICAL COMPANY, LIMITED, priority 2013, dated 2018).
